From ChEMBL document CHEMBL1137846, “Estrogen receptor ligands. Part 7: Dihydrobenzoxathiin SERAMs with bicyclic amine side chains” (Bioorg Med Chem Lett, 2004)

Experiments:
Estrogen receptor beta = Estrogen receptor beta (Homo sapiens, UniProt Q92731)
Description: Binding potency for human ER beta

Estrogen receptor = molecular target: T1, Estrogen receptor (Homo sapiens, UniProt P03372)
T1 sequence (P03372 whole entry): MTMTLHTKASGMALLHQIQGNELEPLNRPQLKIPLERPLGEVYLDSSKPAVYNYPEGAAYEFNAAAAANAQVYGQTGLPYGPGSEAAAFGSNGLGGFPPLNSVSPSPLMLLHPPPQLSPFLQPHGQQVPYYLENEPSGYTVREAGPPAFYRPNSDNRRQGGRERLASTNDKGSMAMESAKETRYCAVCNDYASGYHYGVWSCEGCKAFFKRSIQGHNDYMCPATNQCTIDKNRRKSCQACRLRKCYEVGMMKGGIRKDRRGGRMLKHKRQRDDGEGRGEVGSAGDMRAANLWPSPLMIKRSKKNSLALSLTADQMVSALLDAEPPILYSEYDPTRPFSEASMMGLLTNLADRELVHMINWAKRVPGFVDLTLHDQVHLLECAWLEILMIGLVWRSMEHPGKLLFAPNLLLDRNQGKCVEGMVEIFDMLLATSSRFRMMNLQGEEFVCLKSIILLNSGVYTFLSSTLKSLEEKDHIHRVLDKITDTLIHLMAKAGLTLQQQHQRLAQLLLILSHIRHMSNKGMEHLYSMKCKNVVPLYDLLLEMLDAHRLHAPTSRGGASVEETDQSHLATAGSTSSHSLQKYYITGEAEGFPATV
Description: Binding potency for human ER alpha

MCF7 = test: cells; details: Homo sapiens

Sequence of Estrogen receptor beta (Q92731 whole entry): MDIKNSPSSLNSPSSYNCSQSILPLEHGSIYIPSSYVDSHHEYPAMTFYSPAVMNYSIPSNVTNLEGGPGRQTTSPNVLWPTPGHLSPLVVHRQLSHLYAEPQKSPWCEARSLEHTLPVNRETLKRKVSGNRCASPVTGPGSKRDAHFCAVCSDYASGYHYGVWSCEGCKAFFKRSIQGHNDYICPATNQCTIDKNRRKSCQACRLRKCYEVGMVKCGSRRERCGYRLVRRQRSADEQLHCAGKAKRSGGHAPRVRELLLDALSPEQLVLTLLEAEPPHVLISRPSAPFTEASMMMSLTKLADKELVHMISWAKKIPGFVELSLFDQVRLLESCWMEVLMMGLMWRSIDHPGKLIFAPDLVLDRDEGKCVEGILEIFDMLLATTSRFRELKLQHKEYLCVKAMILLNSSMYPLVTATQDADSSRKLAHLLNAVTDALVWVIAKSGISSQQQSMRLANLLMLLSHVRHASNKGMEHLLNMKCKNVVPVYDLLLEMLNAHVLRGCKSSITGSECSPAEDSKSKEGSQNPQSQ

## Oc1ccc([C@H]2Sc3cc(O)ccc3O[C@H]2c2ccc(OCCN3C4CCCC3CCC4)cc2)cc1
Estrogen receptor beta
  IC50: 47 nM
Estrogen receptor
  IC50: 0.6 nM
MCF7
  IC50: 3 nM

## Oc1ccc([C@H]2Sc3cc(O)ccc3O[C@H]2c2ccc(OCCN3C4CCCC3CC4)cc2)cc1
Estrogen receptor beta
  IC50: 51 nM
Estrogen receptor
  IC50: 0.6 nM
MCF7
  IC50: 2.2 nM

## Oc1ccc([C@H]2Sc3cc(O)ccc3O[C@H]2c2ccc(OCCN3CC4CC5CC(C4)CC3C5)cc2)cc1
Estrogen receptor beta
  IC50: 40 nM
Estrogen receptor
  IC50: 0.6 nM
MCF7
  IC50: 5.8 nM

## Oc1ccc([C@H]2Sc3cc(O)ccc3O[C@H]2c2ccc(OCCN3CC[C@H]4C[C@H]43)cc2)cc1
Estrogen receptor beta
  IC50: 33 nM
MCF7
  IC50: 0.4 nM

## Oc1ccc([C@H]2Sc3cc(O)ccc3O[C@H]2c2ccc(OCCN3CC4CCC4C3)cc2)cc1 (some centres not stated)
Estrogen receptor beta
  IC50: 85 nM
Estrogen receptor
  IC50: 0.8 nM
MCF7
  IC50: 2.5 nM

## Oc1ccc([C@H]2Sc3cc(O)ccc3O[C@H]2c2ccc(OCCN3CCC4(CCCC4)CC3)cc2)cc1
Estrogen receptor beta
  IC50: 39 nM
Estrogen receptor
  IC50: 1.2 nM
MCF7
  IC50: 29.8 nM

## Oc1ccc([C@H]2Sc3cc(O)ccc3O[C@H]2c2ccc(OCCN3CC4(CCC4)C3)cc2)cc1
Estrogen receptor beta
  IC50: 26 nM
Estrogen receptor
  IC50: 0.4 nM
MCF7
  IC50: 0.3 nM

## Oc1ccc([C@H]2Sc3cc(O)ccc3O[C@H]2c2ccc(OCCN3C[C@H]4CCCC[C@H]4C3)cc2)cc1
Estrogen receptor beta
  IC50: 33 nM
Estrogen receptor
  IC50: 1 nM
MCF7
  IC50: 7.7 nM

## Oc1ccc([C@H]2Sc3cc(O)ccc3O[C@H]2c2ccc(OCCN3CC4CCC3CC4)cc2)cc1
Estrogen receptor beta
  IC50: 52 nM
Estrogen receptor
  IC50: 1.3 nM
MCF7
  IC50: 1.6 nM

## Oc1ccc([C@H]2Sc3cc(O)ccc3O[C@H]2c2ccc(OCCN3C4CCC3CC4)cc2)cc1
Estrogen receptor beta
  IC50: 118 nM
Estrogen receptor
  IC50: 0.9 nM
MCF7
  IC50: 3.6 nM

## Oc1ccc([C@H]2Sc3cc(O)ccc3O[C@H]2c2ccc(OCCN3C[C@H]4CCC[C@H]4C3)cc2)cc1
Estrogen receptor beta
  IC50: 18 nM
Estrogen receptor
  IC50: 0.3 nM
MCF7
  IC50: 1.3 nM

## Oc1ccc([C@H]2Sc3cc(O)ccc3O[C@H]2c2ccc(OCCN3CC4CC3CO4)cc2)cc1 (some centres not stated)
Estrogen receptor beta
  IC50: 73 nM
Estrogen receptor
  IC50: 0.7 nM
MCF7
  IC50: 3.3 nM

## Oc1ccc([C@H]2Sc3cc(O)ccc3O[C@H]2c2ccc(OCCN3CC[C@@H]4CC43)cc2)cc1 (single isomer, unassigned)
Estrogen receptor beta
  IC50: 56 nM
MCF7
  IC50: 0.5 nM
